Measured values: PubChem BioAssay AID1919001 (Molecular Pharmacology Branch, DTP, NCI, 2023)

System: 699152-130-R-J1-PDC complex spheroid growth
Assay: Anticancer human tumor 699152-130-R-J1-PDC patient-derived pancreatic carcinoma cell line growth inhibition [AhR]
Settings: for IC50: curve of first compound; for viability, T/C: stronger effect = lower value
Summary of the method: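 Spheroids combined tumor cells with HUVEC endothelial cells and human MSCs as stroma. AhR antagonists were paired with standard or investigational drugs, each dosed in half-log steps down from near clinical Cmax, or from 10 microM where Cmax was unknown.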

[1] = second compound 0.1 µM, first compound 0.0316 µM
[2] = second compound 0.1 µM, first compound 0.1 µM
[3] = second compound 0.1 µM, first compound 0.316 µM
[4] = second compound 0.1 µM, first compound 1 µM
[5] = second compound 0.316 µM, first compound 0.0316 µM
[6] = second compound 0.316 µM, first compound 0.1 µM
[7] = second compound 0.316 µM, first compound 0.316 µM
[8] = second compound 0.316 µM, first compound 1 µM
[9] = second compound 1 µM, first compound 0.0316 µM
[10] = second compound 1 µM, first compound 0.1 µM
[11] = second compound 1 µM, first compound 0.316 µM
[12] = second compound 1 µM, first compound 1 µM
[13] = second compound 3.16 µM, first compound 0.0316 µM
[14] = second compound 3.16 µM, first compound 0.1 µM
[15] = second compound 3.16 µM, first compound 0.316 µM
[16] = second compound 3.16 µM, first compound 1 µM
[17] = second compound 10 µM, first compound 0.0316 µM
[18] = second compound 10 µM, first compound 0.1 µM
[19] = second compound 10 µM, first compound 0.316 µM
[20] = second compound 10 µM, first compound 1 µM
[21] = second compound 0.1 µM, first compound 3.16 µM
[22] = second compound 0.1 µM, first compound 10 µM
[23] = second compound 0.316 µM, first compound 3.16 µM
[24] = second compound 0.316 µM, first compound 10 µM
[25] = second compound 1 µM, first compound 3.16 µM
[26] = second compound 1 µM, first compound 10 µM
[27] = second compound 3.16 µM, first compound 3.16 µM
[28] = second compound 3.16 µM, first compound 10 µM
[29] = second compound 10 µM, first compound 3.16 µM
[30] = second compound 10 µM, first compound 10 µM
[31] = second compound 0.1 µM, first compound 0.00949 µM
[32] = second compound 0.1 µM, first compound 0.03 µM
[33] = second compound 0.1 µM, first compound 0.0949 µM
[34] = second compound 0.1 µM, first compound 0.3 µM
[35] = second compound 0.316 µM, first compound 0.00949 µM
[36] = second compound 0.316 µM, first compound 0.03 µM
[37] = second compound 0.316 µM, first compound 0.0949 µM
[38] = second compound 0.316 µM, first compound 0.3 µM
[39] = second compound 1 µM, first compound 0.00949 µM
[40] = second compound 1 µM, first compound 0.03 µM
[41] = second compound 1 µM, first compound 0.0949 µM
[42] = second compound 1 µM, first compound 0.3 µM
[43] = second compound 3.16 µM, first compound 0.00949 µM
[44] = second compound 3.16 µM, first compound 0.03 µM
[45] = second compound 3.16 µM, first compound 0.0949 µM
[46] = second compound 3.16 µM, first compound 0.3 µM
[47] = second compound 10 µM, first compound 0.00949 µM
[48] = second compound 10 µM, first compound 0.03 µM
[49] = second compound 10 µM, first compound 0.0949 µM
[50] = second compound 10 µM, first compound 0.3 µM
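Note: compound exposure lasted 7 days after spheroids had grown for 3 days.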

CC1COCCN1c1cc(-c2ccnn2C)c2ccnc(-c3ccn[nH]3)c2n1 (stereo not given) + CC(CO)NC(=O)c1cc(-c2ccc(Cl)cc2)nn(-c2cnn(C)c2)c1=O
IC50 (second compound 0.1 µM): > 1 µM
IC50 (second compound 0.316 µM): > 1 µM
IC50 (second compound 1 µM): > 1 µM
IC50 (second compound 3.16 µM): > 1 µM
IC50 (second compound 10 µM): > 1 µM
viability, T/C (second compound 0.1 µM, first compound 0.00316 µM): 105%
viability, T/C (second compound 0.1 µM, first compound 0.01 µM): 112%
viability, T/C [1]: 112%
viability, T/C [2]: 94.2%
viability, T/C [3]: 86.8%
viability, T/C [4]: 63.3%
viability, T/C (second compound 0.316 µM, first compound 0.00316 µM): 102%
viability, T/C (second compound 0.316 µM, first compound 0.01 µM): 100%
viability, T/C [5]: 110%
viability, T/C [6]: 92.1%
viability, T/C [7]: 77.7%
viability, T/C [8]: 59.1%
viability, T/C (second compound 1 µM, first compound 0.00316 µM): 102%
viability, T/C (second compound 1 µM, first compound 0.01 µM): 101%
viability, T/C [9]: 105%
viability, T/C [10]: 87.5%
viability, T/C [11]: 72.3%
viability, T/C [12]: 58.3%
viability, T/C (second compound 3.16 µM, first compound 0.00316 µM): 85.8%
viability, T/C (second compound 3.16 µM, first compound 0.01 µM): 105%
viability, T/C [13]: 84.6%
viability, T/C [14]: 80.1%
viability, T/C [15]: 74%
viability, T/C [16]: 65%
viability, T/C (second compound 10 µM, first compound 0.00316 µM): 97.7%
viability, T/C (second compound 10 µM, first compound 0.01 µM): 82.7%
viability, T/C [17]: 81.5%
viability, T/C [18]: 73.9%
viability, T/C [19]: 64.6%
viability, T/C [20]: 58.1%

CC1COCCN1c1cc(C2(S(C)(=N)=O)CC2)nc(-c2ccnc3[nH]ccc23)n1 (stereo not given) + CC(CO)NC(=O)c1cc(-c2ccc(Cl)cc2)nn(-c2cnn(C)c2)c1=O
IC50 (second compound 0.1 µM): > 10 µM
IC50 (second compound 0.316 µM): > 10 µM
IC50 (second compound 1 µM): > 10 µM
IC50 (second compound 3.16 µM): > 10 µM
IC50 (second compound 10 µM): > 10 µM
viability, T/C [1]: 87.9%
viability, T/C [2]: 95.5%
viability, T/C [3]: 88.7%
viability, T/C [4]: 94.5%
viability, T/C [21]: 79.2%
viability, T/C [22]: 74.6%
viability, T/C [5]: 108%
viability, T/C [6]: 94.2%
viability, T/C [7]: 101%
viability, T/C [8]: 85.8%
viability, T/C [23]: 85.5%
viability, T/C [24]: 78.5%
viability, T/C [9]: 98.6%
viability, T/C [10]: 101%
viability, T/C [11]: 94.3%
viability, T/C [12]: 87.9%
viability, T/C [25]: 84%
viability, T/C [26]: 68%
viability, T/C [13]: 80.4%
viability, T/C [14]: 112%
viability, T/C [15]: 88.5%
viability, T/C [16]: 86.4%
viability, T/C [27]: 73.4%
viability, T/C [28]: 62.8%
viability, T/C [17]: 78.5%
viability, T/C [18]: 82.2%
viability, T/C [19]: 91.3%
viability, T/C [20]: 76.4%
viability, T/C [29]: 72.5%
viability, T/C [30]: 68.2%

COc1ccc([C@@H](O)c2cc(-c3ncnc4cc(N5CCOCC5)ccc34)c(F)cc2Cl)nn1 + CC(CO)NC(=O)c1cc(-c2ccc(Cl)cc2)nn(-c2cnn(C)c2)c1=O
IC50 (second compound 0.1 µM): 3.77 µM
IC50 (second compound 0.316 µM): 4.81 µM
IC50 (second compound 1 µM): 4.41 µM
IC50 (second compound 3.16 µM): 4.24 µM
IC50 (second compound 10 µM): 2.61 µM
viability, T/C [1]: 95.1%
viability, T/C [2]: 105%
viability, T/C [3]: 86.2%
viability, T/C [4]: 78.6%
viability, T/C [21]: 52.5%
viability, T/C [22]: 33.1%
viability, T/C [5]: 93.5%
viability, T/C [6]: 90.2%
viability, T/C [7]: 91.9%
viability, T/C [8]: 74.3%
viability, T/C [23]: 61.5%
viability, T/C [24]: 32.1%
viability, T/C [9]: 108%
viability, T/C [10]: 100%
viability, T/C [11]: 94.2%
viability, T/C [12]: 74.1%
viability, T/C [25]: 56.5%
viability, T/C [26]: 35.9%
viability, T/C [13]: 85%
viability, T/C [14]: 105%
viability, T/C [15]: 94.9%
viability, T/C [16]: 70.6%
viability, T/C [27]: 58.8%
viability, T/C [28]: 34.8%
viability, T/C [17]: 88.8%
viability, T/C [18]: 87.9%
viability, T/C [19]: 68.9%
viability, T/C [20]: 63.4%
viability, T/C [29]: 47.1%
viability, T/C [30]: 38.1%

Nc1ncn(C2CC(O)C(CO)S2)c(=O)n1 (stereo not given) + CC(CO)NC(=O)c1cc(-c2ccc(Cl)cc2)nn(-c2cnn(C)c2)c1=O
IC50 (second compound 0.1 µM): > 0.3 µM
IC50 (second compound 0.316 µM): > 0.3 µM
IC50 (second compound 1 µM): > 0.3 µM
IC50 (second compound 3.16 µM): > 0.3 µM
IC50 (second compound 10 µM): > 0.3 µM
viability, T/C (second compound 0.1 µM, first compound 0.000949 µM): 98%
viability, T/C (second compound 0.1 µM, first compound 0.003 µM): 104%
viability, T/C [31]: 85.7%
viability, T/C [32]: 103%
viability, T/C [33]: 97.8%
viability, T/C [34]: 94.2%
viability, T/C (second compound 0.316 µM, first compound 0.000949 µM): 89.6%
viability, T/C (second compound 0.316 µM, first compound 0.003 µM): 111%
viability, T/C [35]: 105%
viability, T/C [36]: 93.1%
viability, T/C [37]: 93.8%
viability, T/C [38]: 87.1%
viability, T/C (second compound 1 µM, first compound 0.000949 µM): 93.8%
viability, T/C (second compound 1 µM, first compound 0.003 µM): 101%
viability, T/C [39]: 89.1%
viability, T/C [40]: 95.3%
viability, T/C [41]: 94.1%
viability, T/C [42]: 86.1%
viability, T/C (second compound 3.16 µM, first compound 0.000949 µM): 86.3%
viability, T/C (second compound 3.16 µM, first compound 0.003 µM): 88%
viability, T/C [43]: 91.8%
viability, T/C [44]: 88.9%
viability, T/C [45]: 90.1%
viability, T/C [46]: 85%
viability, T/C (second compound 10 µM, first compound 0.000949 µM): 80.7%
viability, T/C (second compound 10 µM, first compound 0.003 µM): 91.8%
viability, T/C [47]: 84.6%
viability, T/C [48]: 87.2%
viability, T/C [49]: 87%
viability, T/C [50]: 86%

O=C(C=Cn1cnc(-c2cc(C(F)(F)F)cc(C(F)(F)F)c2)n1)NNc1cnccn1 + CC(CO)NC(=O)c1cc(-c2ccc(Cl)cc2)nn(-c2cnn(C)c2)c1=O
IC50 (second compound 0.1 µM): > 3 µM
IC50 (second compound 0.316 µM): > 3 µM
IC50 (second compound 1 µM): > 3 µM
IC50 (second compound 3.16 µM): > 3 µM
IC50 (second compound 10 µM): > 3 µM
viability, T/C [31]: 87.8%
viability, T/C [32]: 98.4%
viability, T/C [33]: 82.1%
viability, T/C [34]: 74.3%
viability, T/C (second compound 0.1 µM, first compound 0.949 µM): 82.5%
viability, T/C (second compound 0.1 µM, first compound 3 µM): 83.2%
viability, T/C [35]: 90.2%
viability, T/C [36]: 82.5%
viability, T/C [37]: 76.7%
viability, T/C [38]: 87.3%
viability, T/C (second compound 0.316 µM, first compound 0.949 µM): 87.5%
viability, T/C (second compound 0.316 µM, first compound 3 µM): 70.5%
viability, T/C [39]: 88.8%
viability, T/C [40]: 83.9%
viability, T/C [41]: 75.5%
viability, T/C [42]: 74%
viability, T/C (second compound 1 µM, first compound 0.949 µM): 82.6%
viability, T/C (second compound 1 µM, first compound 3 µM): 79%
viability, T/C [43]: 92.1%
viability, T/C [44]: 88%
viability, T/C [45]: 87%
viability, T/C [46]: 71.8%
viability, T/C (second compound 3.16 µM, first compound 0.949 µM): 71.2%
viability, T/C (second compound 3.16 µM, first compound 3 µM): 75.4%
viability, T/C [47]: 99%
viability, T/C [48]: 82.1%
viability, T/C [49]: 68.7%
viability, T/C [50]: 72.4%
viability, T/C (second compound 10 µM, first compound 0.949 µM): 82.3%
viability, T/C (second compound 10 µM, first compound 3 µM): 73.4%
